Measurements reported in patent US20230106592A1, “METHOD FOR TREATING CANCER USING A COMBINATION OF DNA DAMAGING AGENTS AND ATR INHIBITORS” (Vertex Pharmaceuticals Incorporated, priority 2015, published 2023).

Assay: Phase I trial, combination with carboplatin: adverse events and DLTs
Type: in vivo, human
Procedure: Pts with advanced solid tumors enrolled in 2 sequential parts.
In part A, single pt cohorts received a compound of Formula A-2 once weekly in 21-day cycles with 3+3 dose escalation cohorts being implemented if grade 2 drug-related adverse events (AEs) occurred. […] If a DLT was reported, the cohort was expanded to include 3 additional pts with subsequent dose escalation being permitted if no further DLTs occurred. Paired pre- and post-treatment biopsies from selected pts in part B were assessed for pCHK1 levels by immunohistochemistry. Models based on preclinical and clinical data were used to simulate hematologic toxicities and pCHK1 inhibition for pts treated with a compound of Formula A-2 and CP.

[1] = A-2 120 mg/m^2 + Carboplatin AUC4 (N = 3)
[2] = A-2 120 mg/m^2 + Carboplatin AUC5 (N = 3)
[3] = A-2 240 mg/m2 + Carboplatin AUC 5 (n = 3)
[4] = A-2 240 mg/m^2 + Carboplatin AUC5 (N = 3)
[5] = A-2 + Carboplatin, Total (N = 15)
[6] = A-2 + Carboplatin, Total (N = 19)

## CNCc1ccc(-c2cc(-c3nc(-c4ccc(S(=O)(=O)C(C)C)cc4)cnc3N)on2)cc1 [Compound A-2]
[1]
  Treatment related adverse event: Vomiting, All: 0
  Treatment related adverse event: Vomiting, ≥3: 0
[2]
  Treatment related adverse event: Alopecia, All: 0
  Treatment related adverse event: Alopecia, ≥3: 0
  Treatment related adverse event: Anemia, All: 2
  Treatment related adverse event: Anemia, ≥3: 0
  Treatment related adverse event: Fatigue, All: 1
  Treatment related adverse event: Fatigue, ≥3: 0
  Treatment related adverse event: Flushing, All: 1
  Treatment related adverse event: Flushing, ≥3: 1
  Treatment related adverse event: Headache, All: 0
  Treatment related adverse event: Headache, ≥3: 0
  Treatment related adverse event: Hypertension, All: 0
  Treatment related adverse event: Hypertension, ≥3: 0
  Treatment related adverse event: Nausea, All: 2
  Treatment related adverse event: Nausea, ≥3: 0
  Treatment related adverse event: Neuropathy peripheral, All: 0
  Treatment related adverse event: Neuropathy peripheral, ≥3: 0
  Treatment related adverse event: Neutropenia, All: 2
  Treatment related adverse event: Neutropenia, ≥3: 1
  Treatment related adverse event: Respiratory tract infection, All: 0
  Treatment related adverse event: Respiratory tract infection, ≥3: 0
  Treatment related adverse event: Thrombocytopenia, All: 1
  Treatment related adverse event: Thrombocytopenia, ≥3: 0
  Treatment related adverse event: Vomiting, All: 0
  Treatment related adverse event: Vomiting, ≥3: 0
[3]
  Treatment related adverse event: Alopecia, All Grades: 0 n (%)
  Treatment related adverse event: Alopecia, Grade ≥ 3: 0 n (%)
  Treatment related adverse event: Anemia, All Grades: 3 (100) n (%)
  Treatment related adverse event: Anemia, Grade ≥ 3: 0 n (%)
  Treatment related adverse event: Any Event, All Grades: 3 (100) n (%)
  Treatment related adverse event: Fatigue, Grade ≥ 3: 0 n (%)
  Treatment related adverse event: Flushing, All Grades: 1 (33.3) n (%)
  Treatment related adverse event: Flushing, Grade ≥ 3: 0 n (%)
  Treatment related adverse event: Headache, Grade ≥ 3: 0 n (%)
  Treatment related adverse event: Hypersensitivity, All Grades: 1 (33.3) n (%)
  Treatment related adverse event: Hypersensitivity, Grade ≥ 3: 0 n (%)
  Treatment related adverse event: Infusion related reaction, All Grades: 0 n (%)
  Treatment related adverse event: Infusion related reaction, Grade ≥ 3: 0 n (%)
  Treatment related adverse event: Nausea, All Grades: 3 (100) n (%)
  Treatment related adverse event: Nausea, Grade ≥ 3: 0 n (%)
  Treatment related adverse event: Neuropathy peripheral, Grade ≥ 3: 0 n (%)
  Treatment related adverse event: Neutropenia, All Grades: 3 (100) n (%)
  Treatment related adverse event: Pruritus, All Grades: 1 (33.3) n (%)
  Treatment related adverse event: Pruritus, Grade ≥ 3: 0 n (%)
  Treatment related adverse event: Thrombocytopenia, All Grades: 3 (100) n (%)
  Treatment related adverse event: Thrombocytopenia, Grade ≥ 3: 1 (33.3) n (%)
  Treatment related adverse event: Vomiting, Grade ≥ 3: 0 n (%)
[4]
  Treatment related adverse event: Alopecia, All: 0
  Treatment related adverse event: Alopecia, ≥3: 0
  Treatment related adverse event: Anemia, All: 3
  Treatment related adverse event: Anemia, ≥3: 0
  Treatment related adverse event: Fatigue, All: 2
  Treatment related adverse event: Fatigue, ≥3: 0
  Treatment related adverse event: Flushing, All: 1
  Treatment related adverse event: Flushing, ≥3: 0
  Treatment related adverse event: Headache, All: 2
  Treatment related adverse event: Headache, ≥3: 0
  Treatment related adverse event: Hypertension, All: 1
  Treatment related adverse event: Hypertension, ≥3: 1
  Treatment related adverse event: Nausea, All: 3
  Treatment related adverse event: Nausea, ≥3: 0
  Treatment related adverse event: Neuropathy peripheral, All: 2
  Treatment related adverse event: Neuropathy peripheral, ≥3: 0
  Treatment related adverse event: Neutropenia, All: 3
  Treatment related adverse event: Neutropenia, ≥3: 2
  Treatment related adverse event: Respiratory tract infection, All: 1
  Treatment related adverse event: Respiratory tract infection, ≥3: 1
  Treatment related adverse event: Thrombocytopenia, All: 3
  Treatment related adverse event: Thrombocytopenia, ≥3: 1
  Treatment related adverse event: Vomiting, All: 2
  Treatment related adverse event: Vomiting, ≥3: 0
[5]
  Treatment related adverse event: Alopecia, All: 2
  Treatment related adverse event: Alopecia, ≥3: 0
  Treatment related adverse event: Anemia, All: 9
  Treatment related adverse event: Anemia, ≥3: 0
  Treatment related adverse event: Fatigue, All: 6
  Treatment related adverse event: Fatigue, ≥3: 0
  Treatment related adverse event: Flushing, All: 3
  Treatment related adverse event: Flushing, ≥3: 1
  Treatment related adverse event: Headache, All: 2
  Treatment related adverse event: Headache, ≥3: 0
  Treatment related adverse event: Hypertension, All: 1
  Treatment related adverse event: Hypertension, ≥3: 1
  Treatment related adverse event: Nausea, All: 7
  Treatment related adverse event: Nausea, ≥3: 0
  Treatment related adverse event: Neuropathy peripheral, All: 2
  Treatment related adverse event: Neuropathy peripheral, ≥3: 0
  Treatment related adverse event: Neutropenia, All: 7
  Treatment related adverse event: Neutropenia, ≥3: 4
  Treatment related adverse event: Respiratory tract infection, All: 1
  Treatment related adverse event: Respiratory tract infection, ≥3: 1
  Treatment related adverse event: Thrombocytopenia, All: 7
  Treatment related adverse event: Thrombocytopenia, ≥3: 1
  Treatment related adverse event: Vomiting, All: 2
  Treatment related adverse event: Vomiting, ≥3: 0
[6]
  Treatment related adverse event: Alopecia, Grade ≥ 3: 0 n (%)
  Treatment related adverse event: Anemia, Grade ≥ 3: 0 n (%)
  Treatment related adverse event: Any Event, Grade ≥ 3: 5 (26.3) n (%)
  Treatment related adverse event: Fatigue, Grade ≥ 3: 0 n (%)
  Treatment related adverse event: Flushing, Grade ≥ 3: 0 n (%)
  Treatment related adverse event: Headache, Grade ≥ 3: 0 n (%)
  Treatment related adverse event: Hypersensitivity, Grade ≥ 3: 1 (5.3) n (%)
  Treatment related adverse event: Infusion related reaction, Grade ≥ 3: 0 n (%)
  Treatment related adverse event: Nausea, Grade ≥ 3: 0 n (%)
  Treatment related adverse event: Neuropathy peripheral, Grade ≥ 3: 0 n (%)
  Treatment related adverse event: Neutropenia, All Grades: 8 (42.1) n (%)
  Treatment related adverse event: Neutropenia, Grade ≥ 3: 4 (21.1) n (%)
  Treatment related adverse event: Pruritus, Grade ≥ 3: 0 n (%)
  Treatment related adverse event: Thrombocytopenia, Grade ≥ 3: 1 (5.3) n (%)
  Treatment related adverse event: Vomiting, Grade ≥ 3: 0 n (%)
Cohort 1: A-2 240 mg/m^2 + Carboplatin AUC 5 mg/mL·min, 3/3 evaluable, febrile neutropenia
  DLTs: 1 (febrile
Cohort 2: A-2 120 mg/m^2 + Carboplatin AUC 5 mg/mL·min, 3/3 evaluable, acute hypersensitivity
  DLTs: 1 (acute
Cohort 3: A-2 120 mg/m^2 + Carboplatin AUC 4 mg/mL·min, 3/3 evaluable
  DLTs: 0
Cohort 4: A-2 90 mg/m^2 + Carboplatin AUC 5 mg/mL·min, 10/10 evaluable, febrile neutropenia
  DLTs: 1 (febrile
DL1-2
  Non-DLT G3-4 AE: neutropenia: 4
DL1: Compound A-2 240 mg/m^2 + CP AUC 5 mg/mL·min (n=3)
  DLT: G4 neutropenia and fever: 1
DL2
  Non-DLT G3-4 AE: thrombocytopenia: 1
DL2: Compound A-2 120 mg/m^2 + CP AUC 5 mg/mL·min (n=3)
  DLT: G3 hypersensitivity: 1
DL3-4 (120 mg/m^2 + CP AUC 4; 90 mg/m^2 + CP AUC 5)
  G3-4 AEs: No G3-4 AEs
Part B, carboplatin day 1, Compound A-2 days 2 and 9, 14 pts
  Pts with DLT: 2 pts
Part B across the various DLs
  Grade 3/4-related AEs: 5 pts
Part B, dosage level B2
  DLT: grade 3 hypersensitivity: 1 pt
Part B, dosage levels B1 and B2
  DLT: grade 3/4 neutropenia: 2 pts
